ED50 and Activity data for four compounds are collected here from ChEMBL document CHEMBL1122533 (J Med Chem, 1984).

Peptide text beside a SMILES is read from it. * marks the point of attachment. Cbz = O=C(OCc1ccccc1)*; Boc = CC(C)(C)OC(=O)*

The test system of experiment [1] is Rattus norvegicus. Kind of experiment: In vivo antagonistic effect on gastric acid secretion in the perfused rat stomach. The class given is functional.
The test system of experiment [2] is Rattus norvegicus. Briefly: Compound was tested for the in vivo antagonist activity calculated from ED50 value, by estimating at 25 mL the mean blood volume in a 300-g rat and expressed as molarity. The class given is functional.

On to `CSCC[C@H](NC(=O)[C@H](Cc1c[nH]c2ccccc12)NC(=O)CNC(=O)[C@H](Cc1ccc(O)cc1)NC(=O)OC(C)(C)C)C(=O)N[C@@H](CC(=O)O)C(N)=O` (Boc-YGWMD-NH2), for which, in experiment [1], the ED50 came to 2 mg/kg. The Activity in experiment [2] is reported as 3.1e-05.
`CSCC[C@H](NC(=O)[C@H](Cc1c[nH]c2ccccc12)NC(=O)CNC(=O)[C@H](Cc1ccc(O)cc1)NC(=O)[C@H](C)NC(=O)[C@H](CCC(=O)O)NC(=O)OCc1ccccc1)C(=O)N[C@@H](CC(=O)O)C(N)=O` (Cbz-EAYGWMD-NH2): the ED50 in experiment [1] stood at 1.5 mg/kg. Besides, the Activity in experiment [2] was 1.8e-05.
Compound `CSCC[C@H](NC(=O)[C@H](Cc1c[nH]c2ccccc12)NC(=O)CNC(=O)OC(C)(C)C)C(=O)N[C@@H](CC(=O)O)C(N)=O` (Boc-GWMD-NH2) registered an ED50 in experiment [1] of 5 mg/kg. Moreover, in experiment [2], the Activity is recorded as 0.0001.
Take `CSCC[C@H](NC(=O)[C@H](Cc1c[nH]c2ccccc12)NC(=O)OC(C)(C)C)C(=O)N[C@@H](CC(=O)O)C(N)=O` (Boc-Trp-Met-Asp-NH2): in experiment [1], the 50% effect level (ED50) was put at a dose of 7.5 mg/kg. For the same compound, in experiment [2], the Activity was 0.00016.
